These results are taken from paper PMC5027844 (Cancer cell, 2016).

This assay concerns the target ARF6 (Homo sapiens, UniProt P62330). In words: fluorometric nucleotide exchange assay. Type of assay: biochemical.

pIC50: −log10 of the molar value.

Chain of ARF6 (P62330 2-175): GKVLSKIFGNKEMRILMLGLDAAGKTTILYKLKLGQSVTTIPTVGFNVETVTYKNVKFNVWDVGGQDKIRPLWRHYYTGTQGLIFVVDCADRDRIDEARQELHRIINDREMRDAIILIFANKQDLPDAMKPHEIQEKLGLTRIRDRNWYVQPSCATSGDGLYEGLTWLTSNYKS

As to NAV-2729, the pIC50 (usually the IC50 on a negative log10 scale, so that one unit is a factor of ten) is 6.00.
